According to ChEMBL document CHEMBL1201862, “PubChem BioAssay data set” (2004):
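Growth conditions: 96-well plates. Treatment: test compound, 48 hours, 5 concentrations. Analysis: linear interpolation between bracketing concentrations; unreached endpoints set to highest concentration. GI50 marks 50% less growth.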 Activity calls are given as the source filed them. Cut-off read from the data, not from the text of the source: active = GI50 up to about 1.1 µM and inactive = higher.

Key:
Assay in all cases: inhibition of tumour cell growth, NCI panel, 48 h
A498 = test system: A498
ACHN = test system: ACHN
BT-549 = test system: BT-549
HCT-116 = test system: HCT-116
HOP-62 = test system: HOP-62
IGROV-1 = test system: IGROV-1
MDA-MB-231 = test system: MDA-MB-231
MDA-MB-435 = test system: MDA-MB-435
NCI-H226 = test system: NCI-H226
NCI-H23 = test system: NCI-H23
NCI/ADR-RES = test system: NCI/ADR-RES
RPMI-8226 = test system: RPMI-8226
SF-295 = test system: SF-295
SF-539 = test system: SF-539
SK-MEL-5 = test system: SK-MEL-5
SW-620 = test system: SW-620
U-251 = test system: U-251
UACC-257 = test system: UACC-257
UO-31 = test system: UO-31
T47D = test system: T47D

SMILES	GI50 (A498)	GI50 (ACHN)	GI50 (BT-549)	GI50 (HCT-116)	GI50 (HOP-62)	GI50 (IGROV-1)	GI50 (MDA-MB-231)	GI50 (MDA-MB-435)	GI50 (NCI-H226)	GI50 (NCI-H23)	GI50 (NCI/ADR-RES)	GI50 (RPMI-8226)	GI50 (SF-295)	GI50 (SF-539)	GI50 (SK-MEL-5)	GI50 (SW-620)	GI50 (U-251)	GI50 (UACC-257)	GI50 (UO-31)	GI50 (T47D)
CC1CCOc2ccc(cc2)/C=N\c2ccc(cc2)CCc2ccc(cc2)/N=C\c2ccc(cc2)OCC1	> 100 µM (inactive)	> 100 µM (inactive)	> 100 µM (inactive)	> 100 µM (inactive)	18.2 µM (inactive)	> 100 µM (inactive)	> 100 µM (inactive)	> 100 µM (inactive)	> 100 µM (inactive)	> 100 µM (inactive)	> 100 µM (inactive)	> 100 µM (inactive)	70.3 µM (inactive)	> 100 µM (inactive)	> 100 µM (inactive)	> 100 µM (inactive)	> 100 µM (inactive)	> 100 µM (inactive)	> 100 µM (inactive)	–
Cc1ccc(S(=O)(=O)N/N=C2/C(=O)Nc3c(Cl)cc(Cl)cc32)cc1	55.5 µM (inactive)	> 100 µM (inactive)	86.7 µM (inactive)	44.3 µM (inactive)	> 100 µM (inactive)	32.2 µM (inactive)	> 100 µM (inactive)	51.6 µM (inactive)	> 100 µM (inactive)	63.1 µM (inactive)	40 µM (inactive)	–	35.8 µM (inactive)	66.1 µM (inactive)	59.6 µM (inactive)	99.1 µM (inactive)	58.1 µM (inactive)	> 100 µM (inactive)	41.6 µM (inactive)	–
O=C1C=C(c2c(-c3ccccc3)[nH]c3ccccc23)C(=O)N1c1ccccc1	10.6 µM (inactive)	13.9 µM (inactive)	6.73 µM (inactive)	6.49 µM (inactive)	0.135 µM (active)	14.5 µM (inactive)	11.3 µM (inactive)	4.02 µM (inactive)	22.6 µM (inactive)	10.7 µM (inactive)	8.45 µM (inactive)	5.6 µM (inactive)	10.6 µM (inactive)	8.24 µM (inactive)	8.75 µM (inactive)	5.12 µM (inactive)	13.5 µM (inactive)	9.25 µM (inactive)	13.9 µM (inactive)	–
CC(C)(C)c1cc[n+](C[n+]2ccc(C(C)(C)C)cc2)cc1	53.6 µM (inactive)	> 100 µM (inactive)	–	> 100 µM (inactive)	> 100 µM (inactive)	> 100 µM (inactive)	> 100 µM (inactive)	> 100 µM (inactive)	> 100 µM (inactive)	> 100 µM (inactive)	> 100 µM (inactive)	> 100 µM (inactive)	> 100 µM (inactive)	> 100 µM (inactive)	> 100 µM (inactive)	> 100 µM (inactive)	> 100 µM (inactive)	–	> 100 µM (inactive)	> 100 µM (inactive)
Nc1ncnc2c1ncn2C1OC(CO)C(O)C(O)C1O (stereo not given)	> 100 µM (inactive)	> 100 µM (inactive)	> 100 µM (inactive)	> 100 µM (inactive)	> 100 µM (inactive)	> 100 µM (inactive)	> 100 µM (inactive)	> 100 µM (inactive)	> 100 µM (inactive)	> 100 µM (inactive)	> 100 µM (inactive)	> 100 µM (inactive)	> 100 µM (inactive)	> 100 µM (inactive)	> 100 µM (inactive)	> 100 µM (inactive)	> 100 µM (inactive)	> 100 µM (inactive)	> 100 µM (inactive)	–
CCc1cccc(CC)c1NC(=O)/C(Cl)=C(/Cl)C(=O)O	> 100 µM (inactive)	26.9 µM (inactive)	–	25 µM (inactive)	> 100 µM (inactive)	32.2 µM (inactive)	–	–	> 100 µM (inactive)	38.3 µM (inactive)	–	32.1 µM (inactive)	> 100 µM (inactive)	33 µM (inactive)	36.7 µM (inactive)	21.2 µM (inactive)	> 58.2 µM (inactive)	24.1 µM (inactive)	32.4 µM (inactive)	–
Nc1ccc(S2(c3ccc(N)cc3)C=C(c3ccccc3)C(c3ccccc3)=C2)cc1	> 29.4 µM (inactive)	> 28.6 µM (inactive)	–	> 36 µM (inactive)	70.8 µM (inactive)	> 100 µM (inactive)	> 24.2 µM (inactive)	> 35.9 µM (inactive)	> 21.8 µM (inactive)	> 47.2 µM (inactive)	> 35.1 µM (inactive)	> 64 µM (inactive)	16.4 µM (inactive)	> 25.5 µM (inactive)	> 100 µM (inactive)	> 57.7 µM (inactive)	> 25 µM (inactive)	> 54.5 µM (inactive)	> 40.6 µM (inactive)	> 100 µM (inactive)
O=C(C=P(c1ccccc1)(c1ccccc1)c1ccccc1)c1ccc(-c2ccc(F)cc2F)cc1	2.64 µM (inactive)	2.44 µM (inactive)	–	2.87 µM (inactive)	3.79 µM (inactive)	–	2.1 µM (inactive)	2.28 µM (inactive)	2.43 µM (inactive)	3.22 µM (inactive)	3.09 µM (inactive)	1.87 µM (inactive)	3.15 µM (inactive)	2.88 µM (inactive)	1.84 µM (inactive)	3.58 µM (inactive)	3.41 µM (inactive)	2.72 µM (inactive)	1.77 µM (inactive)	2.33 µM (inactive)
